From patent US7122519B2, “Didemnin analogs and fragments and methods of making and using them” (priority 2000, dated 2006)

Key:
protein biosynthesis = test: inhibition of protein biosynthesis; format: biochemical; conditions: concentration of compound; read-out: Protein Synthesis (inhibition of protein biosynthesis)
Source text: (§1) Initial results are shown in Table 2 for inhibition of protein biosynthesis (column 1), cytotoxicity (column 2), and anti-tumor activity (column 3) of tamandarin A, as compared to the related anti-tumor compound didemnin B. The results in Table 2 are given in units of concentration of the selected compound.

tumor = test: anti-tumor activity (Assay Mean); format: cell-based
Source text: as §1

pancreatic carcinoma = conditions: cited from earlier work
[1] = system: NCI-60 60 tumor cell line panel; test: cytotoxicity, NCI-60 tumor cell line panel mean; format: cell-based
Experimental: as §1
As used herein, “GI50” refers to the dose of a compound which is capable of producing 50% inhibition of cell growth. GI50 is assessed by comparing growth of cells to which a compound has been administered with growth of the same cells to which the compound has not been administered.
As used herein, “LC50” refers to the dose of a compound which is capable of producing 50% lethality in cells. LC50 is assessed by comparing death of cells in a population of cells to which a compound has been administered with the death of cells in a population of the same cells to which the compound has not been administered.
“NCI-60” refers to a 60 tumor cell line panel which from the National Cancer Institute (NCI, Frederick, MD). “NCI-60 Mean” is the average GI50 or LC50 for the panel treated with the selected compound.

| Compound | IC50 (protein biosynthesis) [µM] | Anti-tumor activity (Assay Mean) (tumor) [nM] | in vitro activity against pancreatic carcinoma compared with didemnin B (pancreatic carcinoma) | cytotoxicity compared with didemnin B ([1]; in vitro, assays of Table 2) | LC50 ([1]; mean over 60 tumor cell line panel, 50% lethality in cells) [µM] |
| --- | --- | --- | --- | --- | --- |
| CC[C@H](C)[C@H]1NC(=O)[C@@H](NC(=O)[C@@H](CC(C)C)N(C)C(=O)[C@@H]2CCCN2C(=O)C(C)O)[C@@H](C)OC(=O)[C@H](Cc2ccc(OC)cc2)N(C)C(=O)[C@@H]2CCCN2C(=O)[C@H](CC(C)C)NC(=O)[C@@H](C)C(=O)[C@H](C(C)C)OC(=O)C[C@@H]1O (stereo partly shown) [Didemnin B, reference compound] | 4 | 1.58 |  |  |  |
| tamandarin A | 1.3 | 1.31 | greater in vitro activity | significantly less cytotoxic | 4.8 |
